How the values were obtained:
HL-60 = assay: Cytotoxicity against human HL60 cells after 48 hrs by WST8 assay; format: functional, cell-based; details: HL-60, 48 h
HeLa = assay: Cytotoxicity against human HeLa cells after 48 hrs by WST8 assay; format: functional, cell-based

Q: For `CO[C@H]1[C@H](O[C@@H]2c3c(cc4c(c3O)C(=O)c3c(O)cccc3C4=O)C(=O)[C@@](C)(O)[C@H]2OC)O[C@@H](C)[C@H](O)[C@H]1O` [ARANCIAMYCIN], which IC50 (HL-60) is on record?
A: 4.1 µM

Q: What about the IC50 (HeLa) of the same molecule?
A: 2.7 µM

Q: What does the source list for `CO[C@H]1[C@H](Oc2cc(C)cc3cc4c(c(O)c23)C(=O)c2c(O)cccc2C4=O)O[C@@H](C)[C@H](O)[C@H]1O` [TETRACENOQUINOCIN]?
A: IC50 (HL-60): 210 µM; IC50 (HeLa): 120 µM

Q: Which results are given for `CO[C@H]1[C@H](O[C@@H]2c3c(cc4c(c3O)C(=N)c3c(O)cccc3C4=O)C(=O)[C@@](C)(O)[C@H]2OC)O[C@@H](C)[C@H](O)[C@H]1O`?
A: IC50 (HL-60): > 200 µM; IC50 (HeLa): > 200 µM
